Consider 6 compounds from patent US11802107B2, “Compounds and methods of use” (Signum Biosciences, Inc., priority 2017, dated 2023).

The test system of experiment [1] is P. acnes (ATCC 6919). Kind of experiment: Minimal inhibitory concentration (MIC) against P. acnes. It is filed as cell-based, Propionibacterium acnes. To be noted: Cutibacterium acnes, ATCC6919, 72 h, P. acnes ATCC 6919, 10^6 CFU/mL, read-out: MIC. As for the experimental part: To determine minimal inhibitory concentration (MIC), reagents were dissolved in vehicle (5% v/v) and then added to bacteria suspension. P. acnes (ATCC® 6919TM) at 10^6 CFU/mL was incubated with test materials at the concentrations of two-fold serial dilution (0.25-500 μg/mL) and incubated for 72 hours (P. acnes).

Experiment [2] deals with TNF (TNF-α). Kind of experiment: P. acnes-induced TNF-α gene on human PBMCs (qPCR). The class given is cell-based. The conditions noted are these: PBMC, PBMCs + live P. acnes 1:1, test material 30 PM, 24 hours, read-out: TNFa-Gene % inhibition. As to the method:
Cryopreserved human Peripheral Blood Mononuclear cells (PBMCs) from healthy adult donors were obtained from Zen Bio, Inc (Cat No. SER-PBMC-F). Cells were cultured in 12-well plates with lymphocyte media (Cat No. LYMPH-1) and incubated with test materials ([…]) and live P. acnes (ATCC® 6919TM) at 1:1 PBMC: P. acnes bacteria ratio for 24 hours at 37° C. and 5% CO2. After incubation, cell media supernatants were harvested and used to measure pro-inflammatory cytokine levels (IL-8, TNF-α, IL-1b, IL-17) using ELISA kits (BD Biosciences® #557966, #555212, #555244; R&D Systems® #DY317). Total RNA was extracted from cells using the RNAqueous® kit (Ambion®; Cat No. 1912) and cDNA was obtained using the High Capacity RNA-to-cDNA kit (Applied Biosystems®; Cat No. 4387406). Quantitative PCR (qPCR) was performed using the TaqMan® Fast Advanced Master Mix (Applied Biosystems®; Cat No. 4444556) and specific TaqMan®-probes human gene primers CXCL8 (IL-8), IL1B (IL-1b), TNF (TNF-α), IL17A (IL-17A) and GAPDH to calculate the relative gene fold expression change per treatment. Gene expression analysis was performed using the comparative Ct method (also known as the 2-[delta][delta]Ct) approach by comparing the Ct values of P. acnes-only treated cells with the untreated samples and normalized to GAPDH gene expression as endogenous housekeeping gene.
(Quantitative PCR measures a nucleic acid by following its amplification.)

The test system of experiment [3] is LPS-induced cytokines. Kind of experiment: LPS-induced cytokines on PBMCs. It is filed as cell-based, human. The conditions noted are these: LPS instead of anti-CD3/CD28 beads. As for the experimental part: Cryopreserved human Peripheral Blood Mononuclear cells (PBMCs) from healthy adult donors were obtained from Zen Bio, Inc (Cat No. SER-PBMC-F). Cells were cultured in 96-well plates with lymphocyte media (Cat No. LYMPH-1) and were pre-treated with test materials (≤100 μM) for 2 hours and later co-treated with test materials and anti-CD3/CD28 beads (Thermo-Fisher; Cat No. 11131D) at 1:0.4 PBMC:bead ratio for 24 hours at 37° C. and 5% CO2. After incubation, cell media supernatants were harvested and used to measure cytokine levels (IL-4, IL-5, IL-10) using ELISA kits (BD Biosciences® #555194, #555157; R&D Systems® #DY317). Results were represented as percent of inhibition relative to untreated and anti-CD3/CD28 beads-only treated cells. IC50 values were determined by non-linear regression analysis using the four-parameter logistic equation.
By a similar method, but instead of anti-CD3/CD28 beads (Thermo-Fisher; Cat No. 11131D), compounds A, C, T and E were treated with LPS (Sigma Aldrich, Cat. No. LF4321) to measure inhibition of LPS-induced cytokines, and compounds C and T were treated with PHA-L (Sigma Aldrich, Cat No. 11249738001) to measure inhibition of PHA-induced cytokines.

Experiment [4] relates to IL-6. Kind of experiment: Nickel (Ni2+)-induced IL-6 on HDMECs. The class given is cell-based. The conditions noted are these: Homo sapiens; HDMEC, 1 mM NiSO4, 6 hours, ELISA; read-out: Nickel-HDMECs IL-6 Protein IC50. As to the method:
Human Dermal Microvascular Endothelial cells (HDMECs) from human skin tissues were obtained from Sciencell, Inc. (Cat No. 2000). Cells were cultured in 96-well plates for 24 hours with ECM media (Cat No. 1001) supplemented with endothelial cell growth supplement (Cat No. 50015) and 5% v/v FBS. On Day 2, media was removed and replaced with supplement-depleted medium for 24 hours. On Day 3, media was removed and cells were pre-treated with test materials (≤10 μM) for 2 hours and later co-treated with test materials and 1 mM NiSO4 (Sigma-Aldrich, Cat No. 227676) for 6 hours at 37° C. and 5% CO2. After incubation, cell media supernatants were harvested and used to measure IL-6 levels using ELISA kit (BD Biosciences® #555220). Results were represented as percent of inhibition relative to untreated and NiSO4-only treated cells. IC50 values were determined by non-linear regression analysis using the four-parameter logistic equation.

Experiment [5] concerns IL-2. Kind of experiment: PHA-induced IL-2 on PBMCs. To be noted: Homo sapiens, PBMC, PHA-L 20 μg/mL, 24 hours, ELISA. It is filed as cell-based. As to the method: Cryopreserved human Peripheral Blood Mononuclear cells (PBMCs) from healthy adult donors were obtained from Zen Bio, Inc (Cat No. SER-PBMC-F). Cells were cultured in 96-well plates with lymphocyte media (Cat No. LYMPH-1) and were pre-treated with test materials (≤100 μM) for 2 hours and later co-treated with test materials and PHA-L (Sigma Aldrich, Cat No. 11249738001) at 20 μg/mL and incubated for 24 hours at 37° C. and 5% CO2. After incubation, cell media supernatants were harvested and used to measure cytokine levels (IL-2, IFNγ) using ELISA kits (R&D Systems® #DY202, #DY285). Results were represented as percent of inhibition relative to untreated and PHA-only treated cells. IC50 values were determined by non-linear regression analysis using the four-parameter logistic equation.
(ELISA stands for enzyme-linked immunosorbent assay.)

In experiment [6] the test system is IL-23. Kind of experiment: LPS/IFNγ-induced IL-23 on CD14+ monocytes. It is filed as cell-based. To be noted: Homo sapiens, Monocyte, 50 μg/mL LPS + 5 μg/mL IFNγ, 24 hours, ELISA. As for the experimental part:
Cryopreserved human peripheral blood monocytes cells (CD14+) from healthy adult donors were obtained from Zen Bio, Inc (Cat No. SER-CD4-F). Cells were cultured in 96-well plates with lymphocyte media (Cat No. LYMPH-1) and were pre-treated with test materials (≤100 μM) for 2 hours and later co-treated with test materials and 50 μg/mL LPS, 5 μg/mL IFNγ (Sigma Aldrich, Cat No. L4321, SRP3058) and incubated for 24 hours at 37° C. and 5% CO2. After incubation, cell media supernatants were harvested and used to measure cytokine levels (IL-23) using ELISA kits (R&D Systems® #DY1290). Results were represented as percent of inhibition relative to untreated and […] treated cells. IC50 values were determined by non-linear regression analysis using the four-parameter logistic equation.

Experiment [7] concerns P. acnes (ATCC 6919). Kind of experiment: Minimal bactericidal concentration (MBC) against P. acnes. The class given is cell-based, Propionibacterium acnes. The conditions noted are these: Cutibacterium acnes, ATCC6919; P. acnes 10^7 CFU/mL, in PBS, anaerobic conditions.

Values after ≈ are worked out from the molar mass of the structure shown.

On to `C/C(=C\CSC[C@H](NC(=O)COCC(=O)O)C(=O)O)CCCC(C)CCCC(C)CCCC(C)C` (stereo partly drawn) [Compound T], for which, in experiment [1], the minimum inhibitory concentration (MIC) amounted to 22 µg/mL (≈ 42.7 µM). Besides, the inhibition at 30 pM in experiment [2] is 0%. Further, the “inhibition of LPS-induced cytokines” value in experiment [3] is recorded as “did not show significant inhibition”. For the same compound, the half-maximal inhibitory concentration (IC50) in experiment [4] turned out to be 10 nM; in experiment [5], 100 nM; in experiment [6], 50 nM.

On to `C/C(=C\CSC[C@H](NC(=O)N1CCC[C@H]1C(=O)O)C(=O)O)CCCC(C)CCCC(C)CCCC(C)C` (stereo partly drawn) [Compound E], for which the minimum inhibitory concentration (MIC) in experiment [1] turned out to be 5 µg/mL (≈ 9.25 µM). The compound also showed an MBC in experiment [7] of 7 µg/mL (≈ 12.9 µM). Besides, the inhibition at 30 pM in experiment [2] was determined as 0%. The “inhibition of LPS-induced cytokines” value in experiment [3] was “did not show significant inhibition”. Also, the IC50 worked out at 4100 nM in experiment [5] and 11200 nM in experiment [6].

As for `C/C(=C\CSCC(NC(=O)NCC(=O)O)C(=O)O)CCCC(C)CCCC(C)CCCC(C)C` (stereo not drawn) [A], the MIC in experiment [1] is 10 µg/mL (≈ 20 µM). The “inhibition of LPS-induced cytokines” value in experiment [3] was “did not show significant inhibition”. Also, in experiment [4], the half-inhibitory concentration (IC50) is 30 nM.

`N#Cc1ccc(Oc2ccc3c(c2)COB3O)cc1` [AN2728, reference compound]: the IC50 amounted to 100000 nM in experiment [4], 40 nM in experiment [5] and 650 nM in experiment [6].

Turning to `C/C(=C\CSCC(NC(=O)N(CC(=O)O)CC(=O)O)C(=O)O)CCCC(C)CCCC(C)CCCC(C)C` (stereo not drawn) [Compound G], in experiment [1], the minimum inhibitory concentration (MIC) was determined as 4 µg/mL (≈ 7.16 µM). This compound also showed an MBC in experiment [7] of 1 µg/mL (≈ 1.79 µM). In addition, the inhibition at 30 pM in experiment [2] worked out at 0%. Further, the IC50 in experiment [5] came to 3300 nM; in experiment [6] it was 3080 nM.

With `C/C(=C\CSC[C@H](NC(=O)N(C)CC(=O)O)C(=O)O)CCCC(C)CCCC(C)CCCC(C)C` (stereo partly drawn) [Compound C, (2R)-2-{[(carboxymethyl)(methyl)carbamoyl]amino}-3-{[(2E)-3,7,11,15-tetramethylhexadec-2-en-1-yl]sulfanyl}propanoic acid], the MIC in experiment [1] turned out to be 6 µg/mL (≈ 11.7 µM). For the same compound, the MBC in experiment [7] is 22 µg/mL (≈ 42.7 µM). Moreover, the inhibition at 30 pM in experiment [2] came out at 0%. The “inhibition of LPS-induced cytokines” value in experiment [3] is listed as “did not show significant inhibition”. Also, the IC50 in experiment [4] worked out at 20 nM; in experiment [5], 900 nM; in experiment [6], 190 nM.

The term MIC denotes the lowest concentration that inhibits growth of the organism. What is called inhibition is the percentage by which the read-out fell short of the control. By IC50 is commonly meant the concentration that gives 50% inhibition. In general, MBC refers to the lowest tested concentration that kills the bacteria rather than only halting them. A higher MBC goes with weaker bactericidal potency.
